The subject of test [1] is Brevibacterium flavum AJ13325. The test can be described thus: Growth in the presence of β-(2-thienyl)-DL-alanine. The following applies: 0.25 g/L of β-(2-thienyl)-DL-alanine. It counts as cell-based. The method, then:
Similarly, the term “β-(2-thienyl)-DL-alanine resistance” refers to the property that a bacterium grows faster than the wild type in a medium containing β-(2-thienyl)-DL-alanine. For example, those strains that form colonies on a solid medium containing 0.25 g/L of β-(2-thienyl)-DL-alanine at 30° C. within 4 to 5 days are said to have β-(2-thienyl)-DL-alanine resistance.
(§1) To select β-(2-thienyl)-DL-alanine resistant strains from NG treated strains using Brevibacterium flavum AJ13377 as a parent strain, Brevibacterium flavum AJ13377 cells were NG treated and washed before their inoculation on a minimal medium for selection. The minimal medium for selection was a medium that contained 20 g of glucose, 1 g of ammonium sulfate, 1 g of potassium dihydrogen phosphate, 2.5 g of urea, 0.4 g of magnesium sulfate heptahydrate, 0.01 g of iron (II) sulfate heptahydrate, 0.01 g of manganese sulfate tetra- to pentahydrate, 50 μg of biotin, 200 μg of thiamin hydrochloride, 200 μg of nicotinic acid amide, and 250 mg of β-(2-thienyl)-DL-alanine per liter of distilled water. The NG treated mutant was incubated in the above-described medium at 30° C. for 5 to 10 days. The cell culture thus obtained was spread on a bouillon agar medium and incubated at 30° C. for 24 hours for colony formation. β-(2-Thienyl)-DL-alanine resistant strains were obtained from the strains that formed colonies. […]

The test system of test [2] is 3-PGDH derived from a wild type coryneform bacterium (ATCC 14067). Nature of the test: Feedback inhibition of 3-PGDH by L-serine, enzyme of wild type strain. The format is biochemical, Brevibacterium flavum. The following applies: 10 mM of L-serine. The protocol:
(§2) After collecting cells from the culture broth of each strain, the cells were washed twice with physiological saline and suspended in 50 mM sodium phosphate buffer (pH 7.0) containing 2 mM dithiothreitol. After ice cooling, the suspension was subjected to a sonicator to fragment the cells and the resulting liquid was ultracentrifuged. The ultracentrifugaton was run at 45,000 rpm for 1 hour to obtain a crude enzyme solution.
(§3) The enzyme activity of 3-PGDH was measured by the method of Salach H. J. et al. (Method in Enzymology, vol 9, 216-220 (1966)).
(§4) More specifically, 0.4 ml of 0.015 M NAD, 0.12 ml of 0.25 M EDTA (pH 9, NaOH), 0.1 ml of 0.05 M glutathione (pH 6, KOH), 0.5 ml of 1 M hydrazine (pH 9, acetate), 0.6 ml of 1 M Tris (pH 9, HCl), a suitable concentration of L-serine (0 to 40 mM), and water to make 2.3 ml, warmed to 25° C. in advance, were added. Then, 0.2 ml of the crude enzyme solution was added and the temperature was kept the same for 5 minutes. Thereafter, 0.5 ml of 0.1 M 3-PGA (3-phosphoglycerate disodium salt, pH 7, NaOH) was added. After stirring, the absorbance at 340 nm of the reaction mixture was measured for 30 seconds. The reaction was carried out at 25° C.
(§5) For the measurement of activity, Hitachi U-2000A spectrophotometer was used.

For test [3], the system named is 3-PGDH derived from AJ13325 strain. The test can be described thus: Feedback inhibition of 3-PGDH by L-serine, enzyme of AJ13325. It counts as biochemical, Brevibacterium flavum. The following applies: compared with AJ13324; FIG. 1. The method, then:
as §2, §3, §4, §5

Test [4] relates to 3-PGDH derived from Brevibacterium flavum AJ13327. Nature of the test: Feedback inhibition of 3-PGDH by L-serine, enzyme of AJ13327. It counts as biochemical. The method, then:
as §2, §3
[…] Then, 0.2 ml of the crude enzyme solution was added and the temperature was kept the same for 5 minutes. Thereafter, 0.5 ml of 0.1 M 3-PGA (3-phosphoglycerate disodium salt, pH 7, NaOH) was added. After stirring, the absorbance at 340 nm of the reaction mixture was measured for 30 seconds. The reaction was carried out at 25° C.
as §5

The subject of test [5] is 3-PGDH derived from AJ13377 strain. The test can be described thus: Feedback inhibition of 3-PGDH by L-serine, enzyme of AJ13377. It counts as biochemical, Brevibacterium flavum. The conditions noted are these: compared with wild type strain ATCC 14067; FIG. 1. The method, then: as §2, §3, §4, §5
The subject of test [6] is 3-PGDH derived from AJ13324 strain. Nature of the test: Feedback inhibition of 3-PGDH by L-serine, enzyme of AJ13324. The format is biochemical, Brevibacterium flavum. The following applies: compared with AJ13377; FIG. 1. The method, then: as §2, §3, §4, §5
In test [7] the test system is Brevibacterium flavum AJ13324 and AJ13327. Nature of the test: Growth in the presence of azaserine. It counts as cell-based. The following applies: 0.25 g/L of azaserine. The protocol: More specifically, for example, the term “azaserine resistance” refers to the property that a bacterium grows faster than the wild type in a medium containing azaserine. For example, those strains that form colonies on a solid medium containing 0.25 g/L of azaserine at 30° C. within 4 to 5 days are said to have azaserine resistance.
as §1, with “azaserine” for “β-(2-thienyl)-DL-alanine”, “strain, NG treated” for “strain,”, “cells after washed” for “cells”, “inoculated” for “NG treated and washed before their inoculation”, “Azaserine” for “β-(2-Thienyl)-DL-alanine”, “colonies. The mutants thus obtained included many strains that accumulated L-serine in considerable amounts at high yields.” for “colonies.”

`NC(Cc1cccs1)C(=O)O` (racemic) [β-(2-thienyl)-DL-alanine]: the “growth of resistant strains in the presence of β-(2-thienyl)-DL-alanine” value in test [1] is listed as “able to grow”.

Take `N[C@@H](CO)C(=O)O` [L-serine]: the “inhibition of 3-PGDH activity by L-serine” value in test [2] is on record as “almost completely inhibited”. Also, the “L-serine sensitivity of 3-PGDH” value is listed as “of the same level as the AJ13324 strain” in test [3], “relieved of L-serine sensitivity” in test [5] and “more relieved of L-serine sensitivity” in test [6]. The “feedback inhibition of 3-PGDH by L-serine” value in test [4] (80 mM L-serine, FIG. 1) is “completely desensitized”. The “3-PGDH activity retained in the presence of L-serine” value in test [4] (80 mM of L-serine, relative to activity in the absence of L-serine) is listed as roughly 100%.

Turning to `[N-]=[N+]=CC(=O)OC[C@H](N)C(=O)O` [azaserine], the “growth of resistant strains in the presence of azaserine” value in test [7] is “able to grow”.

The values above are taken from patent US20030175912A1, “Method of producing L-serine by fermentation” (AJINOMOTO CO. INC, priority 1998, published 2003).
